Measured values from article PMC12040169 (PLOS Biology, 2025).

Test: in vitro
Conditions: human, hela cells, % viability

Row | Compound | viability at 28.5 h, 10 µM
1 | O=C(COc1ccccc1)Nc1ccc2oc(-c3cccnc3)nc2c1 [CBK262959] | 92.1%
2 | COc1cc(/C=C2/C(=O)N(c3ccc(Cl)c(C(=O)O)c3)N=C2C)ccc1Oc1nc2c(c(=O)n(C)c(=O)n2C)n1C [CBK262962] | 91.1%
3 | Cc1ccc(N2NC(=O)/C(=C/c3ccc(-c4ccc5c(c4)C(=O)NC5=O)o3)C2=O)cc1C [CBK262963] | 81.6%
4 | O=C1NN(c2ccc(Br)cc2)C(=O)/C1=C\c1ccc(-c2ccc3c(c2)C(=O)NC3=O)o1 [CBK262968] | 111%
5 | O=C1NN(c2cccc(Cl)c2)C(=O)/C1=C\c1ccc(-c2ccc3c(c2)C(=O)NC3=O)o1 [CBK262970] | 93.4%
6 | COc1cccc(C2CC(=O)c3c(ccc4ccccc34)N2)c1OC (centres unmarked) [CBK262971] | 94.1%
7 | NNC(=O)CNC(c1cc(Br)ccc1N)c1ccccc1Cl (centres unmarked) [CBK262977] | 87.1%
8 | COc1ccc(OC)c(NC(=O)CN2CCN(c3ccccn3)CC2)c1 [CBK262978] | 83.7%
9 | CC(CC(=O)C1C(C)C=CCC1(C)C)NNC(=O)c1ccccc1O (centres unmarked) [CBK262980] | 91.6%
10 | CCOC(=O)c1c(NC(=O)CCN2C(=O)c3cccc4cccc(c34)C2=O)sc2c1CCC2 [CBK262982] | 111%
11 | CCN(CC)CC(=O)Nc1ccc(Br)cc1C(=O)c1ccccc1 [CBK262983] | 109%
12 | O=C(O)Cc1nnnn1-c1ccccc1 [CBK262984] | 102%
13 | O=C1c2ccccc2NC(c2ccc(O)cc2)N1/N=C/c1ccc(O)cc1 (centres unmarked) [CBK262985] | 84.5%
14 | CCc1ccc(/C=N/N2CCN(Cc3cccc4ccccc34)CC2)cc1 [CBK262986] | 104%
15 | O=C1C(=CNCCC(c2ccccc2)c2ccccc2)C(=O)c2ccccc21 [CBK262987] | 97%
16 | O=C(COc1cccc2ccccc12)NNC(=O)Cc1ccc(Cl)cc1 [CBK262988] | 112%
17 | CCOC(=O)N1CCN(C(=O)COc2cccc3ccccc23)CC1 [CBK262992] | 93%
18 | Cc1cccc(C(=O)NNC(=O)COc2cccc3ccccc23)c1O [CBK262993] | 87.7%
19 | N/C(Cc1ccc([N+](=O)[O-])cc1)=N\OC(=O)COc1cccc2ccccc12 [CBK262994] | 92.8%
20 | O=C(CSc1nnc(-c2ccc(Cl)cc2)n1-c1ccccc1)N/N=C/c1ccco1 [CBK262996] | 91.6%
21 | NS(=O)(=O)c1ccc(CCNC=C2C(=O)c3ccccc3C2=O)cc1 [CBK262997] | 99%

Row | Compound | viability at 28.5 h, 10 µM
22 | N/C(=N\OC(=O)COc1cccc2ccccc12)c1ccccn1 [CBK262999] | 96.2%
23 | O=C(CSc1nnc(-c2ccc(Cl)cc2)n1-c1ccccc1)N/N=C/c1ccccn1 [CBK263001] | 94.6%
24 | C(=N\N1CCN(Cc2cccc3ccccc23)CC1)/c1ccncc1 [CBK263003] | 94.6%
25 | NC(=O)C(=O)Nc1nc(-c2ccccc2)cs1 [CBK263005] | 98.4%
26 | CC1=NN(c2ccc([N+](=O)[O-])cc2)C(=O)/C1=C\NCCc1ccc(S(N)(=O)=O)cc1 [CBK263006] | 92.6%
27 | O=C1C(=CNCCN2CCOCC2)C(=O)c2ccccc21 [CBK263008] | 109%
28 | Cc1ccc(/C(N)=N/OC(=O)COc2cccc3ccccc23)cc1 [CBK263009] | 98.5%
29 | NNC(=O)CSc1nnc(-c2ccc(Cl)cc2)n1-c1ccccc1 [CBK263010] | 81.3%
30 | Brc1cccc(/C=N/N2CCN(Cc3cccc4ccccc34)CC2)c1 [CBK263011] | 98%
31 | Cc1cccc(N/C=C(/C#N)c2nc(-c3ccc4c(c3)OCO4)cs2)c1C [CBK263013] | 96.4%
32 | O=C(COc1cccc2ccccc12)Nc1cccnc1 [CBK263015] | 115%
33 | COc1ccc(NC(=O)c2cc([N+](=O)[O-])ccc2N2CCN(C)CC2)cc1 [CBK263017] | 102%
34 | CCOC(=O)c1c(NC(=O)Cn2nc(C(F)(F)F)c(Cl)c2C)sc2c1CCCC2 [CBK263019] | 98.5%
35 | O=C(c1cccc(F)c1)N1CCN(Cc2ccccn2)CC1 [CBK263023] | 88.5%
36 | Cc1cc(C)nc(Nc2ncc(O)n2-c2ccccc2C)n1 [CBK263024] | 91.2%
37 | Cc1ccc(OCCOc2cccc(/C=N/n3cnnc3)c2)cc1 [CBK263028] | 111%
38 | CCC(Sc1nnc2c3ccccc3n(C)c2n1)C(=O)Nc1sc2c(c1C#N)CCCC2 (centres unmarked) [CBK263031] | 92.6%
39 | COc1cc(NC(=O)c2cc([N+](=O)[O-])ccc2N2CCN(C)CC2)c2ncccc2c1 [CBK263034] | 90%
40 | Cc1cc(C)c2c(c1)-c1c(ssc1=S)C(C)(C)N2C(=O)CSc1nncn1C [CBK263035] | 106%
41 | COc1ccc(/C=N/NS(=O)(=O)c2ccc(C)cc2)cc1CSc1ccccn1 [CBK263036] | 96%
42 | O=C(Cc1ccccc1)N1CCN(Cc2ccc3ccccc3c2)CC1 [CBK263037] | 112%

Row | Compound | viability at 28.5 h, 10 µM
43 | Cc1cc(C)c2c(c1)-c1c(ssc1=S)C(C)(C)N2C(=O)CSc1nnc[nH]1 [CBK263038] | 88.5%
44 | O=C(Cc1ccccc1)N1CCN(Cc2ccccn2)CC1 [CBK263039] | 88.6%
45 | C=CCn1c2ccccc2c2nnc(SC(CC)C(=O)N3c4ccccc4Sc4ccccc43)nc21 (centres unmarked) [CBK263040] | 90.7%
46 | Cc1ccnc(N2C(=O)c3ccc(C(=O)c4ccc5c(c4)C(=O)N(c4cc(C)ccn4)C5=O)cc3C2=O)c1 [CBK263041] | 93.4%
47 | CC1CCc2c(sc(NC(=O)COc3ccccc3)c2C(=O)Nc2ccccc2Cl)C1 (centres unmarked) [CBK263044] | 101%
48 | COc1cccc(C2Nc3ccc4ccccc4c3C3=C2C(=O)CC(C)(C)C3)c1OCC(=O)O (centres unmarked) [CBK263045] | 89.8%
49 | COC(=O)c1c(NC(=O)Cn2nc([N+](=O)[O-])c(Cl)c2C)sc2c1CCCC2 [CBK263047] | 83.9%
50 | CN1CCN(c2ccc(/C=c3\sc4nc5ccccc5n4c3=O)cc2[N+](=O)[O-])CC1 [CBK263048] | 89.3%
51 | O=C(O)CCSc1nnnn1C1CCCCC1 [CBK263052] | 88.9%
52 | O=C(NCCCn1ccnc1)c1cnn2c(C(F)(F)F)cc(-c3cccs3)nc12 [CBK263060] | 88.7%
53 | Cc1c(NC(=O)c2cn3c4c(c(N5CCN(C)CC5)c(F)cc4c2=O)OCN3C)c(=O)n(-c2ccccc2)n1C [CBK263061] | 92.9%
54 | O=C(NCCN1CCOCC1)c1cnn2c(-c3ccccc3)cc(-c3ccccc3)nc12 [CBK263062] | 94.5%
55 | CC1CCc2c(sc(NC(=O)Cn3cnc([N+](=O)[O-])n3)c2C(N)=O)C1 (centres unmarked) [CBK263064] | 91.3%
56 | CCC(=O)Nc1ccc2oc(-c3cccc(C)c3)nc2c1 [CBK263065] | 89.6%
57 | Cc1cc(C)c2oc(-c3ccc(C)c(NC(=O)COc4ccccc4C)c3)nc2c1 [CBK263067] | 103%
58 | CN(CP(=O)(O)CCc1ccccc1)S(C)(=O)=O [CBK263068] | 95.1%
59 | Cc1cccc(N2C(=O)c3ccc(C(=O)c4ccc5c(c4)C(=O)N(c4cccc(C)n4)C5=O)cc3C2=O)n1 [CBK263069] | 87.8%
60 | CCn1cc(C(=O)O)c(=O)c2cc(F)c(N(C)CCc3ccc(OC)c(OC)c3)cc21 [CBK263070] | 97.1%
61 | Cc1c(N2C(=O)/C(=C3\C(=O)Nc4ccc([N+](=O)[O-])cc43)SC2=S)c(=O)n(-c2ccccc2)n1C [CBK263071] | 115%
62 | O=C(COc1ccc(Br)cc1)Nc1ccc(Cl)c(-c2nc3ccccc3[nH]2)c1 [CBK263075] | 92%
63 | COc1ccc(N2C(=O)CC(NNC(N)=O)C2=O)cc1 (centres unmarked) [CBK263080] | 92.1%

Row | Compound | viability at 28.5 h, 10 µM
64 | Cc1ccc(C(=O)Cn2c3ccccc3n3ncnc23)cc1 [CBK263081] | 99.6%
65 | CC(=O)Oc1ccc(NC(=O)CC2Nc3cc(C)c(C)cc3NC2=O)cc1 (centres unmarked) [CBK263088] | 89.5%
66 | C(=C\CSc1nc2ccccc2[nH]1)/CSc1nc2ccccc2[nH]1 [CBK263090] | 107%
67 | Nc1nnc(SC/C=C/CSc2nnc(N)s2)s1 [CBK263092] | 90.3%
68 | O=C(CCNc1n[nH]c(=O)[nH]c1=O)N/N=C\c1ccccc1F [CBK263093] | 86.3%
69 | COc1cccc(N2C(=O)/C(=C/c3ccc(O)c(O)c3)SC2=S)c1 [CBK263096] | 94.7%
70 | O=C(Cn1c2ccccc2n2ncnc12)c1ccc(-c2ccccc2)cc1 [CBK263097] | 106%
71 | Cc1ccc(S(=O)(=O)N/C(=N/C(C)C(=O)O)c2ccccc2)cc1 (centres unmarked) [CBK263099] | 92.2%
72 | Cc1ccc(OCC(=O)O/N=C(\N)Cc2ccc([N+](=O)[O-])cc2)c(C)c1 [CBK263102] | 101%
73 | NS(=O)(=O)c1ccc(CCNC(=O)c2ccc(C#CC3(O)CCCCC3)cc2)cc1 [CBK263104] | 93.9%
74 | O=S(=O)(/N=C(/NS(=O)(=O)c1cccc2ccccc12)c1ccccc1)c1ccccc1 [CBK263105] | 112%
75 | COc1cccc(/C=N\NC(=O)CN2CCN(Cc3ccccc3)CC2)c1O [CBK263106] | 97.1%
76 | Cc1nc2n(/N=C/c3ccc([N+](=O)[O-])cc3)c3ccccc3n2c1C#N [CBK263107] | 88.4%
77 | COc1cc(CN2CCN(Cc3cccc([N+](=O)[O-])c3)CC2)c([N+](=O)[O-])cc1OC [CBK263111] | 99.9%
78 | CC1(C)CN=C(N2CCN(c3c4c(c(C#N)c5nc6ccccc6n35)CCC4)CC2)S1 [CBK263113] | 103%
79 | Cc1ccc(C(=O)N/C(=C\c2cccc([N+](=O)[O-])c2)c2n[nH]c(=S)[nH]2)cc1 [CBK263114] | 87%
80 | CC(=O)NS(=O)(=O)c1ccc(NC(=N)Nc2nc(C)cc(C)n2)cc1 [CBK263117C] | 90.1%
81 | O=C(O)/C=C/c1cn(-c2ccccc2)nc1-c1cccs1 [CBK263119] | 102%
82 | O=C(CCN1C(=O)c2cccc([N+](=O)[O-])c2C1=O)Nc1ccccc1Cl [CBK263121] | 91.6%
83 | N#Cc1c2c(c(Nc3ccc(C4CCCCC4)cc3)n3c1nc1ccccc13)CCC2 [CBK263122] | 95.1%
